From patent US8415469B2, “Compounds and methods for kinase modulation, and indications therefor” (Plexxikon Inc., priority 2005, dated 2013)

Assays:
[1] = test system: primary cultures of human and murine microglia; conditions: stimulated with endotoxins or Abeta 1-40; cited from earlier work
brain TNF production = conditions: mice, intracerebroventricular lipopolysaccharide; cited from earlier work
Kdr = molecular target: T1, Kdr (Homo sapiens, UniProt P35968); experiment: Z'-Lyte FRET kinase assay (Invitrogen), Kdr; type: biochemical; conditions: read-out: IC50, activity toward kinase Kdr
T1 construct: purchased Invitrogen (assay run by Invitrogen)
T1 sequence (P35968 20-1356): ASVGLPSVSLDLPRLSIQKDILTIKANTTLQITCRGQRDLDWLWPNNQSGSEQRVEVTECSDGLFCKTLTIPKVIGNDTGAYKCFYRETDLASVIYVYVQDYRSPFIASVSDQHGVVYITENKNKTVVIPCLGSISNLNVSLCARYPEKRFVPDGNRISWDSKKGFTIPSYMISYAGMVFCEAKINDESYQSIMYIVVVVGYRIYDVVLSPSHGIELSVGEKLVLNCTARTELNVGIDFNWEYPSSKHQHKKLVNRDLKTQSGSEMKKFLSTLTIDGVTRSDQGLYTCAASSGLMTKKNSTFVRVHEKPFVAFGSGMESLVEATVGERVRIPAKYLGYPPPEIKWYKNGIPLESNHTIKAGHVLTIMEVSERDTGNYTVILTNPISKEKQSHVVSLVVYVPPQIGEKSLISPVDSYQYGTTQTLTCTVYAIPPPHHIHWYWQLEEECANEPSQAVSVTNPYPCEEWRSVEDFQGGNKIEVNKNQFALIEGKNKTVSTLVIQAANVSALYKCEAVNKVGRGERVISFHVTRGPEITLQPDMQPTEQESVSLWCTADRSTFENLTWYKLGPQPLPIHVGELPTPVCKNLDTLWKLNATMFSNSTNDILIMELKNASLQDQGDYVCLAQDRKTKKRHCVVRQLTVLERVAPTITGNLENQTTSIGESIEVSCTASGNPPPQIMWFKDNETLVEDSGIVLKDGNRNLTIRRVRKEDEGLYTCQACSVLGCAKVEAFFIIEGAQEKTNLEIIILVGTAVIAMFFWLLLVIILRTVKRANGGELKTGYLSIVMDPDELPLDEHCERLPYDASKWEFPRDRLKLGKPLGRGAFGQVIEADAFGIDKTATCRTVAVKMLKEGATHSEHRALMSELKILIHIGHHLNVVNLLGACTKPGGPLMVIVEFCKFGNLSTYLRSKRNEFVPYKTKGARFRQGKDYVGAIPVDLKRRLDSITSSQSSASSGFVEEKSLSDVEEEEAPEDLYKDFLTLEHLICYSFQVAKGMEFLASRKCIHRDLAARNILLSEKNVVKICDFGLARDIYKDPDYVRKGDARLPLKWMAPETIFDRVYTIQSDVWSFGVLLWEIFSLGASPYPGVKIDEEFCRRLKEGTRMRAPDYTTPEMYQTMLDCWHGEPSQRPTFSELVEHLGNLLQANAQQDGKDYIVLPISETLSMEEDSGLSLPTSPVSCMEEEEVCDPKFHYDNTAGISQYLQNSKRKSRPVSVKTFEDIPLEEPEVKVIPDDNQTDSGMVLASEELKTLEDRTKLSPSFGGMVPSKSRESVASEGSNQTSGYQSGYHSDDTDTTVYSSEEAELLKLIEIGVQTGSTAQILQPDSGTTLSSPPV

MAP2K1 = molecular target: T2, MAP2K1 (Homo sapiens, UniProt Q02750); experiment: Z'-Lyte FRET kinase assay (Invitrogen), MAP2K1; type: biochemical; conditions: read-out: IC50, activity toward kinase MAP2K1
T2 construct: purchased Invitrogen (assay run by Invitrogen)

MAPKAPK2 = molecular target: T3, MAPKAPK2 (Homo sapiens, UniProt P49137); experiment: Z'-Lyte FRET kinase assay (Invitrogen), MAPKAPK2; type: biochemical; conditions: read-out: IC50, activity toward kinase MAPKAPK2
T3 construct: purchased Invitrogen (assay run by Invitrogen)
From the text: The effect of potential modulators of kinase activity can be measured in a variety of different assays known in the art. For example, direct radiometric, indirect FRET or AlphaScreen assays may be used to assess the level of phosphorylation of a substrate in the presence of test compounds in order to determine the inhibitory affect of the compound on the kinase. Invitrogen (Carlsbad, Calif.) uses a FRET based assay for Btk, EGFR, EphB2, Flt3, lrak4, Kdr, MAP2K1, MAPKAPK2, PDGFRB, PKC theta, Stk6 and Yes. For these assays, compounds of the invention were screened by Invitrogen using Z′-Lyte™ kinase assay.
Briefly, the Invitrogen kinase assay involves use of a specific peptide substrate optimized for each kinase, containing a fluorophore at each end that make up the FRET pair. The peptide sensitivity to proteolytic cleavage depends on phosphorylation of the peptide. Non-phosphorylated peptide is cleaved by a protease while peptide phosphorylated by the kinase is not cleaved. Cleavage of the peptide disrupts the FRET between the donor (coumarin) and acceptor (fluorescein) fluorophores, resulting in an increase in the ratio of donor emission to acceptor emission. The emission ratio of coumarin to fluorescein is used to assess the reaction progress. The extent of phosphorylation is determined from the emission ratio, which is low when the kinase is active (phosphorylated peptide is not cleaved, FRET pair connected) or higher for inhibited kinase (non-phosphorylated peptide is cleaved, FRET pair separated). Thus, the assay involves a kinase reaction in the presence of varying concentrations of a given compound, a development reaction with site specific protease, and detection of the fluorescent emission ratio of coumarin and fluorscein. […] Reaction conditions for each kinase are determined to provide optimal reaction times, incubation temperature, kinase and ATP concentrations. Test samples are made up in 1× kinase buffer (50 mM HEPES pH 7.5, 50 mM MgCl2, 5 mM EGTA, 0.05% BRIJ-35) and compound at desired concentration prepared in DMSO such that the final DMSO is 1%. […] Typically, assay plates are prepared to 10 μl final volume per sample, adding 2.5 μl of compound at 4× the desired concentration in 4% DMSO (serial dilution of compound provides concentration curve), 5 μl of the desired kinase mixed with Z′-LYTE™ peptide substrate (2× in 2× kinase buffer, final peptide at 2 μM), and 2.5 μl of 4×ATP solution. All kinase except for MAP2K1 were at 10 μM ATP in the kinase reaction, while MAP2K1 was at 100 μM. Samples are mixed and the kinase reaction is incubated 1 hour at room temperature, after which 5 μl of development solution is added and mixed. After incubation for another 1 hour at room temperature, 5 μl of stop reagent is added to each sample and mixed. The fluorescence signals are measured to determine the emission ratio.

PKC theta = molecular target: T4, PKC theta (Homo sapiens, UniProt Q04759); experiment: Z'-Lyte FRET kinase assay (Invitrogen), PKC theta; type: biochemical; conditions: read-out: IC50, activity toward kinase PKC theta
T4 construct: purchased Invitrogen (Carlsbad, Calif.), screening service
T4 sequence (Q04759 whole entry): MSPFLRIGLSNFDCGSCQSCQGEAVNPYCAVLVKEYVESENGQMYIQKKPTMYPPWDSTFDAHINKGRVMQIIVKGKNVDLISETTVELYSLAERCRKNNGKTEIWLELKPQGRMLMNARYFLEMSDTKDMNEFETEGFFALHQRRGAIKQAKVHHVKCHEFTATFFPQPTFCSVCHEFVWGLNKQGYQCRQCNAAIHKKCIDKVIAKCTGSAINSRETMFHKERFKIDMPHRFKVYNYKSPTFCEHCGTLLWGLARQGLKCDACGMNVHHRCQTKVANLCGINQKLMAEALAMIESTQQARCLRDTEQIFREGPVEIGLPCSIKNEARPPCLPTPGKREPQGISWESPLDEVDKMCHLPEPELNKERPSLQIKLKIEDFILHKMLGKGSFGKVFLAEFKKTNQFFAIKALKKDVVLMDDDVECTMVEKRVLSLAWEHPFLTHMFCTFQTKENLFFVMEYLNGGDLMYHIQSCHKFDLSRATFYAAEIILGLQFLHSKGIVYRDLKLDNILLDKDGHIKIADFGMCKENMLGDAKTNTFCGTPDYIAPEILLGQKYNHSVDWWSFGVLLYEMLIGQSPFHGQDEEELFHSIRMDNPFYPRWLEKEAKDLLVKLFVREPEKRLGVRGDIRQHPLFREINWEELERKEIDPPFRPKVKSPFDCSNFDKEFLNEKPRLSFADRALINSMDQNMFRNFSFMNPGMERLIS
Outline: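 Serially diluted compound (final 1% DMSO) incubated 1 h at room temperature with kinase, 2 μM FRET peptide and 10 μM ATP in pH 7.5 HEPES buffer. Site-specific protease then cleaves unphosphorylated peptide (1 h); inhibition read as increased coumarin-to-fluorescein emission ratio.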

Stk6 = molecular target: T5, Stk6 (Homo sapiens, UniProt O14965); experiment: Z'-Lyte FRET kinase assay (Invitrogen), Stk6; type: biochemical; conditions: read-out: IC50, activity toward kinase Stk6
T5 construct: purchased Invitrogen (Carlsbad, Calif.), screening service
T5 sequence (O14965 1-403): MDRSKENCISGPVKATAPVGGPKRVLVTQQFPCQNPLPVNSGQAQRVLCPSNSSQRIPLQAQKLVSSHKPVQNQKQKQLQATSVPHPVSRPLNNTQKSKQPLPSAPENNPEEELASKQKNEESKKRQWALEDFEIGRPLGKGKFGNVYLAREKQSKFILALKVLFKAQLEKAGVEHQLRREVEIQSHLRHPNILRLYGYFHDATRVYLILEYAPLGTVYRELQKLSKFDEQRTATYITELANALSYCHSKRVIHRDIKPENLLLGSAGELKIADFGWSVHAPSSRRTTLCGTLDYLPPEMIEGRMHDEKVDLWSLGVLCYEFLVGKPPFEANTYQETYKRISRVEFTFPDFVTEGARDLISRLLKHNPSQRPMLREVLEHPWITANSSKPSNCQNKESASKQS

Akt3 = Akt3 (Homo sapiens, UniProt Q9Y243); experiment: AlphaScreen kinase assay, Akt3; type: biochemical; conditions: read-out: IC50, activity toward kinase Akt3
Outline: (§1)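 Emission from acceptor beads reports phosphorylated biotin-peptide bridging antibody-coated acceptor and streptavidin donor beads; loss of signal reflects kinase inhibition. Eight-point, threefold dilution series prepared from 20 mM DMSO stocks.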

Gsk3β = Gsk3β (Homo sapiens, UniProt P49841); experiment: AlphaScreen kinase assay, Gsk3β; type: biochemical; conditions: read-out: IC50, activity toward kinase Gsk3β
Sequence of Gsk3β (P49841 whole entry): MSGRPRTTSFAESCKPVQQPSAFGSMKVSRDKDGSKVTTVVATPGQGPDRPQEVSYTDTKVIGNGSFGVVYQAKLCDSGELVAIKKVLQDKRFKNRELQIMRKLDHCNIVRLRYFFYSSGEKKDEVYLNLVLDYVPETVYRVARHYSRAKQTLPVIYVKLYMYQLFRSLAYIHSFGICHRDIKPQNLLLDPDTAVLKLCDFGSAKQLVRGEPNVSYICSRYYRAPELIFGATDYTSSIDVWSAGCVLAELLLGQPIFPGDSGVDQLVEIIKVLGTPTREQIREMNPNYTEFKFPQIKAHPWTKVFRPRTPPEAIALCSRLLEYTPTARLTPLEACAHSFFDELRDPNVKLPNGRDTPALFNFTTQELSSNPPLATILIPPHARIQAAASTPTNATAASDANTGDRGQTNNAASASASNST
Outline: as §1

MAP4K4 = MAP4K4 (Homo sapiens, UniProt O95819); experiment: AlphaScreen kinase assay, MAP4K4; type: biochemical; conditions: read-out: IC50, activity toward kinase MAP4K4
Sequence of MAP4K4 (O95819 whole entry): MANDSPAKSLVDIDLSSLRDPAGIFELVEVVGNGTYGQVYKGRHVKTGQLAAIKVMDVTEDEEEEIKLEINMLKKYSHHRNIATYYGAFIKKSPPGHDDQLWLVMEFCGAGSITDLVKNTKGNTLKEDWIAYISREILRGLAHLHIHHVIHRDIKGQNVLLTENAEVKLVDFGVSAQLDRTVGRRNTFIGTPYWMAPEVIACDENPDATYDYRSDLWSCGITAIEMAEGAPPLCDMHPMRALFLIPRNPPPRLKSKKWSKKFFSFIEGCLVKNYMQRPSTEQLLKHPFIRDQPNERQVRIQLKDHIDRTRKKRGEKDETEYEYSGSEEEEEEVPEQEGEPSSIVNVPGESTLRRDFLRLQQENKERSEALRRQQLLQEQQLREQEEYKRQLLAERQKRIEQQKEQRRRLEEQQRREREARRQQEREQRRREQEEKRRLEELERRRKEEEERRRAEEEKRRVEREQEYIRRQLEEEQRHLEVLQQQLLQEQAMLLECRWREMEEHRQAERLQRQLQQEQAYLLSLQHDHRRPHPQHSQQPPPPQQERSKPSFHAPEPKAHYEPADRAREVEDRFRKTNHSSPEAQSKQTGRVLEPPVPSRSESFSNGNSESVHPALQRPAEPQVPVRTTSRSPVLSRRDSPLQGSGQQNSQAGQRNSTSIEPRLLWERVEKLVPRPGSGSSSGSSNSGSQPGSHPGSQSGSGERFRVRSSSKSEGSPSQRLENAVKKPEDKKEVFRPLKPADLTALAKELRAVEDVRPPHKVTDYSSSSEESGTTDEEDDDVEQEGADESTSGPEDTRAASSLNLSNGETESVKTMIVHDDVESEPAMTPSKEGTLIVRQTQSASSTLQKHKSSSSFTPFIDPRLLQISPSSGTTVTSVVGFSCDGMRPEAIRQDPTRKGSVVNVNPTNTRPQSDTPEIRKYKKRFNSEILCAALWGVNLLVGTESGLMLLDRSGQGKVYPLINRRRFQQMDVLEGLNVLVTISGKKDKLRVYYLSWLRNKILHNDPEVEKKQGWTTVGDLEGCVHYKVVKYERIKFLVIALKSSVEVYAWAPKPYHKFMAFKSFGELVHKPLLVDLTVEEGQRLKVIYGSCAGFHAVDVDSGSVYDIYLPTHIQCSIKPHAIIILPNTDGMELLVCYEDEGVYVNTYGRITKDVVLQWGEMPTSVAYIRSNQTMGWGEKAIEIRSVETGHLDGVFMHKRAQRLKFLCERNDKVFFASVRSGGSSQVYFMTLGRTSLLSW

IKK beta = molecular target: T6, IKK beta (Homo sapiens, UniProt O14920); experiment: AlphaScreen kinase assay, IKK beta; type: biochemical; conditions: read-out: IC50, activity toward kinase IKK beta
T6 sequence (O14920 1-756): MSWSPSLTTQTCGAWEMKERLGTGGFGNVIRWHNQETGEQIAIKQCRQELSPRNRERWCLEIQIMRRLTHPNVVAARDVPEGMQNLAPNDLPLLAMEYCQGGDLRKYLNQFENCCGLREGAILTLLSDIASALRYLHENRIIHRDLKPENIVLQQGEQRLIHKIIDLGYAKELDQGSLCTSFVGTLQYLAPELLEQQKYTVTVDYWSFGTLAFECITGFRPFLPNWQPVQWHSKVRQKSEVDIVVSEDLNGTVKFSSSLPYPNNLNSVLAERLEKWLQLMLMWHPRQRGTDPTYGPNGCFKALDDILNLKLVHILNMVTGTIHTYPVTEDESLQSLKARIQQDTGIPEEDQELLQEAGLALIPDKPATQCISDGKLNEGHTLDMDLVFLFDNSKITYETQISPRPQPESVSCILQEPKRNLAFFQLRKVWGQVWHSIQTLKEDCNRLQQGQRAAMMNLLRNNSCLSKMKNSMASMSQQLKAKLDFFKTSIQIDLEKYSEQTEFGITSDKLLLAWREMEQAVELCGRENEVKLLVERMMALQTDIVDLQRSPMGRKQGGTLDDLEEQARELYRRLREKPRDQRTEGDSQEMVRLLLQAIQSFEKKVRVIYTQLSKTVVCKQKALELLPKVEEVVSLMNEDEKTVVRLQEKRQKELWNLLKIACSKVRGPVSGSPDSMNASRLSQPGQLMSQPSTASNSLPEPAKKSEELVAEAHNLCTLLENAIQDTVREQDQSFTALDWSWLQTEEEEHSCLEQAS

ROCK1 = ROCK1 (Homo sapiens, UniProt Q13464); experiment: AlphaScreen kinase assay, ROCK1; type: biochemical; conditions: read-out: IC50, activity toward kinase ROCK1
Sequence of ROCK1 (Q13464 whole entry): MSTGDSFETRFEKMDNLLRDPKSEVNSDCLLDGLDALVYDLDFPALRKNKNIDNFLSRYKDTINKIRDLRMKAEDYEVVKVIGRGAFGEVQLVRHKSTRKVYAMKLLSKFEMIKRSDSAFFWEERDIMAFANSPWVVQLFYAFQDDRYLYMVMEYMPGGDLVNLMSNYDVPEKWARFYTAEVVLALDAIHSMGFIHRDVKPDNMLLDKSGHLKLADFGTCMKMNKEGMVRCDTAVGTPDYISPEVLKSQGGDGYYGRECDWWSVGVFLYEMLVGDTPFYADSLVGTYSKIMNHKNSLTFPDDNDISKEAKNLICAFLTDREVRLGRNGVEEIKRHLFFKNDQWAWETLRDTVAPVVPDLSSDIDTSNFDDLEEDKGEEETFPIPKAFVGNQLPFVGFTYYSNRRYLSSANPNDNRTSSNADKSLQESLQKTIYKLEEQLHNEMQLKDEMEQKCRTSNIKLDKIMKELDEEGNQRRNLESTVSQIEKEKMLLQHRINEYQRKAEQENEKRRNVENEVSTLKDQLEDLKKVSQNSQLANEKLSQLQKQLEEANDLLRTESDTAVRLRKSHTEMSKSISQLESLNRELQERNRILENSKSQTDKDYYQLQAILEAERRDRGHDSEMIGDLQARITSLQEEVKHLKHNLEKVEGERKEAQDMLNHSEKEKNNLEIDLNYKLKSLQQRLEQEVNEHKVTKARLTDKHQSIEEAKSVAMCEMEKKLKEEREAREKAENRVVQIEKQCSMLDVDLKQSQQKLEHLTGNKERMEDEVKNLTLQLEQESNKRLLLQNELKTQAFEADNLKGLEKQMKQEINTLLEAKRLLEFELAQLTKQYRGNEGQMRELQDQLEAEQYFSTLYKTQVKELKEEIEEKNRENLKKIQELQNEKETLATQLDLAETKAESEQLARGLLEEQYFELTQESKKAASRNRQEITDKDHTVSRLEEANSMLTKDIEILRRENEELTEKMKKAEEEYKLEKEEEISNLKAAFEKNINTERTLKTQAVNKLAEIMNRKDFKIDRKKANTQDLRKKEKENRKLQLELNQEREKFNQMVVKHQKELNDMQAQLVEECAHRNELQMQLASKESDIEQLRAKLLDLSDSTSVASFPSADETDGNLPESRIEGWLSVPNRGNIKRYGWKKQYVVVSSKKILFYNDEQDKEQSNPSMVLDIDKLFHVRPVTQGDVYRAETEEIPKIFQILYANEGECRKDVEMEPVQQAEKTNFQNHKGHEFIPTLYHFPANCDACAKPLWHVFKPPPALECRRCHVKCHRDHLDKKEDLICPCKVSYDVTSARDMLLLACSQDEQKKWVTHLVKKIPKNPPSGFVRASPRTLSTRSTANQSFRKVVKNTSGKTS
From the text: (§2) AlphaScreen assay was used to screen additional kinases. The assay is similarly dependent on the phosphorylation of a peptide substrate. In this assay, an antibody that recognizes phosphorylated substrate is bound to an acceptor bead. The peptide substrate is attached to biotin, which binds to a donor head that contains streptavidin. Thus phosphorylated substrate is bound by antibody and streptavidin, bringing the donor and acceptor heads into close proximity when kinase is not inhibited. The donor produces singlet oxygen which results in emission from the acceptor when they are in close proximity. Conversely, when kinase is inhibited, the donor and acceptor beads are not associated and the emission from the acceptor is reduced.
(§3) AlphaScreen assays were done using compounds dissolved in DMSO to a concentration of 20 mM. The compounds were diluted accordingly to the desired final concentrations in each sample well, using 1:3 serial dilution for a total of 8 concentration points.

Syk = Syk (Homo sapiens, UniProt P43405); experiment: AlphaScreen kinase assay, Syk; type: biochemical; conditions: read-out: IC50, activity toward kinase Syk
From the text: as §2, §3

Compound: CCSCc1ccc2c(c1)c1c3c(c4c5cc(CSCC)ccc5n5c4c1n2[C@H]1C[C@](O)(C(=O)OC)[C@]5(C)O1)CNC3=O [CEP-1347]
- cytokine production (TNF-alpha, IL-6, MCP-1) [1]: reduced cytokine production
- brain TNF production (brain TNF production): inhibited brain TNF production

Compound: OCc1cccc(-c2ccnc3[nH]cc(Sc4ccccn4)c23)c1 [Compound P-0057]
- IC50 (Kdr): ≤ 10 µM
- IC50 (MAP2K1): ≤ 10 µM
- IC50 (MAPKAPK2): ≤ 10 µM
- IC50 (PKC theta): ≤ 10 µM
- IC50 (Stk6): ≤ 10 µM
- IC50 (Akt3): ≤ 10 µM
- IC50 (Gsk3β): ≤ 10 µM
- IC50 (MAP4K4): ≤ 10 µM
- IC50 (IKK beta): ≤ 10 µM
- IC50 (ROCK1): ≤ 10 µM
- IC50 (Syk): ≤ 10 µM
